In patent publication US20160060260A1, “BROMODOMAIN INHIBITORS FOR TREATING DISEASE” (Board of Regents, The University of Texas System, priority 2014, published 2016):

molecular target: T1, Recombinant human His-tagged Trim24-PHD-bromodomain (Homo sapiens, UniProt O15164); test: Trim24 AlphaScreen Assay; format: binding; settings: 5 nM Trim24 protein, 15 nM biotinylated H3K23ac (1-33aa) peptide
T1 construct: Recombinant human His-tagged Trim24-PHD-bromodomain (produced in-house); made in house
T1 sequence (O15164 824-1006 limits assumed): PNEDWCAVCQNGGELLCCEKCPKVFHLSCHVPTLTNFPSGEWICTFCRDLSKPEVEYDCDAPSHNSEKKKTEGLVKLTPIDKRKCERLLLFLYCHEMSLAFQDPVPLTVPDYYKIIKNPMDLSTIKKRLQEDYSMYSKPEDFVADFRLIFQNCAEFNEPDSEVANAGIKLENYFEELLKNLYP
Procedure, shortened: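 AlphaScreen read-out after 2 h with streptavidin donor and Ni-chelate acceptor beads at 10 ug/mL each, following 1 h room-temperature incubation of compound, His-tagged PHD-bromodomain protein and biotin-H3K23ac (1-33aa) peptide in Hepes pH 7.5 buffer with NaCl and Triton X-100. Signals normalised between no-compound and no-protein wells; IC50 from four-parameter logistic curves.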

Row | SMILES | IC50 [nM]
1 | CCCOc1cc(OCCCOC)cc(Oc2cc3c(cc2NS(=O)(=O)c2cccc4c2OCCO4)n(C)c(=O)n3C)c1 [Example 175, N-(6-(3-(3-methoxypropoxy)-5-propoxyphenoxy)-1,3-dimethyl-2-oxo-2,3-dihydro-1H-benzo[d]imidazol-5-yl)-2,3-dihydrobenzo[b][1,4]dioxine-5-sulfonamide] | 100 to 1000
2 | COC(C)(CO)COc1cccc(Oc2cc3c(cc2NS(=O)(=O)c2cn(C)cn2)n(C)c(=O)n3C)c1 (stereo not shown) [Example 232, N-{6-[3-(3-hydroxy-2-methoxy-2-methylpropoxy)phenoxy]-1,3-dimethyl-2-oxo-2,3-dihydro-1H-1,3-benzodiazol-5-yl}-1-methyl-1H-imidazole-4-sulfonamide] | 100 to 1000
3 | CCOc1cc(OCC(C)C)cc(Oc2cc3c(cc2NS(=O)(=O)c2cn(C)cn2)n(C)c(=O)n3C)c1 [Example 225, N-(6-(3-ethoxy-5-isobutoxyphenoxy)-1,3-dimethyl-2-oxo-2,3-dihydro-1H-benzo[d]imidazol-5-yl)-1-methyl-1H-imidazole-4-sulfonamide] | 10 to 100
4 | CCC(C)COc1cccc(Oc2cc3c(cc2NS(=O)(=O)c2cn(C)c(C)n2)n(C)c(=O)n3C)c1 (stereo not shown) [Example 62, N-(1,3-dimethyl-6-(3-(2-methylbutoxy)phenoxy)-2-oxo-2,3-dihydro-1H-benzo[d]imidazol-5-yl)-1,2-dimethyl-1H-imidazole-4-sulfonamide] | 100 to 1000
5 | Cc1nc(S(=O)(=O)Nc2cc3c(cc2Oc2cccc(OCCC(C)C)c2)n(C)c(=O)n3C)cn1C [Example 4, N-(6-(3-(isopentyloxy)phenoxy)-1,3-dimethyl-2-oxo-2,3-dihydro-1H-benzo[d]imidazol-5-yl)-1,2-dimethyl-1H-imidazole-4-sulfonamide] | 100 to 1000
6 | Cn1c(=O)n(C)c2cc(Oc3cccc(OCc4ccccc4)c3)c(NS(=O)(=O)c3ccc4c(c3)OCO4)cc21 [Example 36, N-(6-(3-(benzyloxy)phenoxy)-1,3-dimethyl-2-oxo-2,3-dihydro-1H-benzo[d]imidazol-5-yl)benzo[d][1,3]dioxole-5-sulfonamide] | 100 to 1000
7 | Cn1cnc(S(=O)(=O)Nc2cc3c(cc2Oc2cccc(OCc4ccccn4)c2)n(C)c(=O)n3C)c1 [Example 28, N-(1,3-dimethyl-2-oxo-6-(3-(pyridin-2-ylmethoxy)phenoxy)-2,3-dihydro-1H-benzo[d]imidazol-5-yl)-1-methyl-1H-imidazole-4-sulfonamide] | 100 to 1000
8 | CNCC(C)(O)COc1cccc(Oc2cc3c(cc2NS(=O)(=O)c2cn(C)cn2)n(C)c(=O)n3C)c1 (stereo not shown) [Example 235, N-(6-{3-[2-hydroxy-2-methyl-3-(methylamino)propoxy]phenoxy}-1,3-dimethyl-2-oxo-2,3-dihydro-1H-1,3-benzodiazol-5-yl)-1-methyl-1H-imidazole-4-sulfonamide] | > 1000
9 | CCCOc1cccc(Oc2cc3c(cc2NS(=O)(=O)c2cccc(N(C)C)c2)n(C)c(=O)n3C)c1 [Example 173, N-(1,3-dimethyl-2-oxo-6-(3-propoxyphenoxy)-2,3-dihydro-1H-benzo[d]imidazol-5-yl)-3-(dimethylamino)benzenesulfonamide] | 100 to 1000
10 | CC(C)c1cccc(S(=O)(=O)Nc2cc3c(cc2Oc2cccc(OCc4ccccc4)c2)n(C)c(=O)n3C)c1 [Example 32, N-(6-(3-(benzyloxy)phenoxy)-1,3-dimethyl-2-oxo-2,3-dihydro-1H-benzo[d]imidazol-5-yl)-3-isopropylbenzenesulfonamide] | > 1000
11 | Cn1c(=O)n(C)c2cc(Oc3cccc(OCc4ccccc4)c3)c(NS(=O)(=O)c3cccc(Br)c3)cc21 [Example 38, N-(6-(3-(benzyloxy)phenoxy)-1,3-dimethyl-2-oxo-2,3-dihydro-1H-benzo[d]imidazol-5-yl)-3-bromobenzenesulfonamide] | > 1000
12 | COCCCOc1cc(C#N)cc(Oc2cc3c(cc2NS(=O)(=O)c2ccn(C)n2)n(C)c(=O)n3C)c1 [Example 121, N-(6-(3-cyano-5-(3-methoxypropoxy)phenoxy)-1,3-dimethyl-2-oxo-2,3-dihydro-1H-benzo[d]imidazol-5-yl)-1-methyl-1H-pyrazole-3-sulfonamide] | 100 to 1000
13 | Cn1cc(S(=O)(=O)Nc2cc3c(cc2Oc2cccc(OC(F)(F)F)c2)n(C)c(=O)n3C)cn1 [Example 73, N-(1,3-dimethyl-2-oxo-6-(3-(trifluoromethoxy)phenoxy)-2,3-dihydro-1H-benzo[d]imidazol-5-yl)-1-methyl-1H-pyrazole-4-sulfonamide] | > 1000
14 | Cn1cnc(S(=O)(=O)Nc2cc3c(cc2Oc2cccc(OCC4CCOC4)c2)n(C)c(=O)n3C)c1 (stereo not shown) [Example 64, N-(1,3-dimethyl-2-oxo-6-(3-((tetrahydrofuran-3-yl)methoxy)phenoxy)-2,3-dihydro-1H-benzo[d]imidazol-5-yl)-1-methyl-1H-imidazole-4-sulfonamide] | 100 to 1000
15 | COCC(C)(O)COc1cccc(Oc2cc3c(cc2NS(=O)(=O)c2cn(C)cn2)n(C)c(=O)n3C)c1 (stereo not shown) [Example 233, N-{6-[3-(2-hydroxy-3-methoxy-2-methylpropoxy)phenoxy]-1,3-dimethyl-2-oxo-2,3-dihydro-1H-1,3-benzodiazol-5-yl}-1-methyl-1H-imidazole-4-sulfonamide] | 100 to 1000
16 | Cn1c(=O)n(C)c2cc(Oc3cccc(OCc4ccccc4)c3)c(NS(C)(=O)=O)cc21 [Example 11] | > 1000

More lines, now with the values ahead:

Row | IC50 [nM] | SMILES
17 | 10 to 100 | CCCOc1cc(OCC2CC2)cc(Oc2cc3c(cc2NS(=O)(=O)c2cn(C)cn2)n(C)c(=O)n3C)c1 [Example 126, N-(6-(3-(cyclopropylmethoxy)-5-propoxyphenoxy)-1,3-dimethyl-2-oxo-2,3-dihydro-1H-benzo[d]imidazol-5-yl)-1-methyl-1H-imidazole-4-sulfonamide]
18 | 1 to 10 | CCCOc1cc(OCCCCCCN)cc(Oc2cc3c(cc2NS(=O)(=O)c2cnn(C)c2C)n(C)c(=O)n3C)c1 [Example 189, N-(6-(3-((6-aminohexyl)oxy)-5-propoxyphenoxy)-1,3-dimethyl-2-oxo-2,3-dihydro-1H-benzo[d]imidazol-5-yl)-1,5-dimethyl-1H-pyrazole-4-sulfonamide]
19 | 10 to 100 | CCCOc1cc(OCCCOC)cc(Oc2cc3c(cc2NS(=O)(=O)c2cn(C)cn2)n(C)c(=O)n3C)c1 [Example 152, N-(6-(3-(3-methoxypropoxy)-5-propoxyphenoxy)-1,3-dimethyl-2-oxo-2,3-dihydro-1H-benzo[d]imidazol-5-yl)-1-methyl-1H-imidazole-4-sulfonamide]
20 | 10 to 100 | CCCOc1cc(OCCCOC)cc(Oc2cc3c(cc2NS(=O)(=O)c2cccc4[nH]c(=O)c(=O)[nH]c24)n(C)c(=O)n3C)c1 [Example 176, N-(6-(3-(3-methoxypropoxy)-5-propoxyphenoxy)-1,3-dimethyl-2-oxo-2,3-dihydro-1H-benzo[d]imidazol-5-yl)-2,3-dioxo-1,2,3,4-tetrahydroquinoxaline-5-sulfonamide]
21 | 10 to 100 | CCCOc1cc(OCCCOC)cc(Oc2cc3c(cc2NS(=O)(=O)c2cccc(OC)c2)n(C)c(=O)n3C)c1 [Example 151, 3-methoxy-N-(6-(3-(3-methoxypropoxy)-5-propoxyphenoxy)-1,3-dimethyl-2-oxo-2,3-dihydro-1H-benzo[d]imidazol-5-yl)benzenesulfonamide]
22 | 10 to 100 | Cn1cnc(S(=O)(=O)Nc2cc3c(cc2Oc2cccc(OCC4CC4)c2)n(C)c(=O)n3C)c1 [Example 100, N-(6-(3-(cyclopropylmethoxy)phenoxy)-1,3-dimethyl-2-oxo-2,3-dihydro-1H-benzo[d]imidazol-5-yl)-1-methyl-1H-imidazole-4-sulfonamide]
23 | 10 to 100 | CCCOc1cc(C#N)cc(Oc2cc3c(cc2NS(=O)(=O)c2ccc(OC)c(OC)c2)n(C)c(=O)n3C)c1 [Example 109, N-(6-(3-cyano-5-propoxyphenoxy)-1,3-dimethyl-2-oxo-2,3-dihydro-1H-benzo[d]imidazol-5-yl)-3,4-dimethoxybenzenesulfonamide]
24 | 10 to 100 | CCCOc1cc(OCC2CC2)cc(Oc2cc3c(cc2NS(=O)(=O)c2cccnc2)n(C)c(=O)n3C)c1 [Example 118, N-(6-(3-(cyclopropylmethoxy)-5-propoxyphenoxy)-1,3-dimethyl-2-oxo-2,3-dihydro-1H-benzo[d]imidazol-5-yl)pyridine-3-sulfonamide]
25 | 10 to 100 | CCCOc1cccc(Oc2cc3c(cc2NS(=O)(=O)c2ccccn2)n(C)c(=O)n3C)c1 [Example 168, N-(1,3-dimethyl-2-oxo-6-(3-propoxyphenoxy)-2,3-dihydro-1H-benzo[d]imidazol-5-yl)pyridine-2-sulfonamide]
26 | 10 to 100 | Cn1c(=O)n(C)c2cc(Oc3cccc(OCC4CC4)c3)c(NS(=O)(=O)c3cccnc3)cc21 [Example 128, N-(6-(3-(cyclopropylmethoxy)phenoxy)-1,3-dimethyl-2-oxo-2,3-dihydro-1H-benzo[d]imidazol-5-yl)pyridine-3-sulfonamide]
27 | 10 to 100 | CCCOc1cccc(Oc2cc3c(cc2NS(=O)(=O)c2cccc(C(=O)O)c2)n(C)c(=O)n3C)c1 [Example 208, 3-(N-(1,3-dimethyl-2-oxo-6-(3-propoxyphenxoy)-2,3-dihydro-1H-benzo[d]imidazol-5-yl)sulfamoyl)benzoic acid]
28 | 10 to 100 | CCCOc1cccc(Oc2cc3c(cc2NS(=O)(=O)c2cccc(OC/C=C/CCCN)c2)n(C)c(=O)n3C)c1 [Example 243, (E)-3-((6-aminohex-2-en-1-yl)oxy)-N-(1,3-dimethyl-2-oxo-6-(3-propoxyphenoxy)-2,3-dihydro-1H-benzo[d]imidazol-5-yl)benzenesulfonamide 2,2,2-trifluoroacetate]
